Literature values, collected in US8685425B2, “Microencapsulation product and process” (priority 2004, dated 2014).

solubility of DEET in water: around 1%
Compound: CCN(CC)C(=O)c1cccc(C)c1 [DEET, N,N-diethyl-m-toluamide]
